{"source": "patent US20220354852A1", "about": "“TARGETING WNT SIGNALING FOR IMPROVED GLIOMA IMMUNOTHERAPY” (CITY OF HOPE, priority 2021, published 2022)", "system": "PBT147 and PBT030 glioma cell lines", "test": "Global proteomic analysis of PBT147 and PBT030", "assay_type": "cell-based, human", "conditions": "72 h", "protocol": "FIG. 18. Proteomics analysis of PBT147 and PBT030 cell lines treated with ICG-001 (0-10 μM) for 72 h. (A) Protein density was calculated by the difference in log normalized levels for each protein between the four treated samples and the appropriate untreated sample. (B) Calculating the difference in log levels corresponds also to looking at the log of the fold changes in each protein. For both cell lines, the log fold-change for each protein at […] was plotted against the log fold-change at 10 μg. These plots are shown in A, with the points color-coded by cell line. This highlights a positive linear relationship between the log fold changes at 5 μg and 10 μg in both cell lines. […] The heatmap has been generated using Ward's method for clustering and the Manhattan (L1) distance. To highlight patterns of similar changes in regulation over cell lines and doses, rather than absolute differences in protein levels, quantile normalization has been used before creating the heatmap, with protein levels in each sample being normalized to that of a uniform distribution on −1≤x≤1.\nFIG. 19 is a table showing a proteomics analysis at 72 hours for two cell lines (PB147, PB030) treated with ICG-001 in vitro at three doses (0 μg, 5 μg, 10 μg). 1557 proteins were quantified.\nProteomics data analysis. […] To examine the effect of the drug, the difference in log normalized levels for each protein between the four treated samples and the appropriate untreated sample was calculated, which corresponds to examining the log of the fold changes in each protein after treatment. For each of the two cell lines, the log fold change for each protein at 5 μg was plotted against the log fold change at 10 μg. These plots are shown in FIG. 17, with the points colored-coded by cell line. The line of (linear) regression is calculated and shown for each cell line.\nThe heatmap has been constructed by using Ward's method for clustering and the Manhattan (L1) distance. To highlight patterns of similar changes in regulation over cell-lines and doses, rather than absolute differences in protein levels, quantile normalization has been used before creating the heatmap, with protein levels in each sample being normalized those of a uniform distribution on −1≤x≤1.\nProteomics analyses of the PBT147 and PBT030 glioma cell lines after treatment with ICG-001 to elucidate targeted pathways in vitro. […]\nTo examine the effect of ICG-001, the difference in log-normalized levels was calculated for each protein between the four treated samples and the appropriate untreated samples (which corresponds to looking at the log of the fold changes in each protein). […] The line of (linear) regression is calculated and plotted for each cell line. […]"}
{"smiles": "O=C1[C@H](Cc2ccc(O)cc2)N2C(=O)CCN(C(=O)NCc3ccccc3)[C@H]2CN1Cc1cccc2ccccc12", "note": "[ICG-001]", "values": [{"measurement": "dose effect on protein fold change, PBT030 versus PBT147", "setting": "5 μM versus 10 μM", "result": "significantly greater in PBT030 than PBT147"}, {"measurement": "HA and LDHA protein expression", "setting": "ICG-001 0, 5, and 10 μM", "result": "loss"}, {"measurement": "PKM1 protein expression", "setting": "ICG-001 0, 5, and 10 μM", "result": "increased"}, {"measurement": "protein translation", "setting": "ICG-001 0, 5, and 10 μM", "result": "overall increase in protein translation"}]}
